From patent US9101564B2, “Heparanase activity inhibitor, wrinkle improving agent containing same, and pharmaceutical composition” (Shiseido Company, Ltd., priority 2009, dated 2015)

Target: T1, heparanase (Homo sapiens, UniProt Q9Y251)
T1 construct: the supernatant was recovered as cell extract; endogenous in cells; host or cells: A431 (human epithelial carcinoma cells), Triton X-100 lysate
T1 sequence (Q9Y251 158-543 limits assumed): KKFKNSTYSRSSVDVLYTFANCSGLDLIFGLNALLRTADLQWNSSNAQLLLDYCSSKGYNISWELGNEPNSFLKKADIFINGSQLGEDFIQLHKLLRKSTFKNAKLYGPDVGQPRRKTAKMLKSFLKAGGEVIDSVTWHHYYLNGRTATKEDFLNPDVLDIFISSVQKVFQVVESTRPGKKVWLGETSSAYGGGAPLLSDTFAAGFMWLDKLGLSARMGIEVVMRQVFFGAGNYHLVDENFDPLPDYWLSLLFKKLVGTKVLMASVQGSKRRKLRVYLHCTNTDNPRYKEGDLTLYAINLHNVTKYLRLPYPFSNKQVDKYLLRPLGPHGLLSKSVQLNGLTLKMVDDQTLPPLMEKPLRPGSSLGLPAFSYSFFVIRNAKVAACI
T1 sequence (Q9Y251 36-109 limits assumed): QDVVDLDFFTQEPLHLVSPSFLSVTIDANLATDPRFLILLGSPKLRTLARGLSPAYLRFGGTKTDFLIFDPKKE
Test: Heparanase activity inhibition rate, A431 cell extract on biotinylated heparan sulfate-immobilized plate
Assay type: biochemical
Conditions: A431 cell extract 500 μg/mL, 37° C., 2 hours, DMSO 5%
Description: A431 cells (human epithelial carcinoma cells) were cultured in 10% serum-containing DMEM (Dulbecco's modified Eagle medium). The cultured cells were solubilized in lysis buffer (50 mM Tris, 0.5% TritonX-100, 0.15 M sodium chloride, pH 4.5) and collected with a scraper, and then pipetted and allowed to stand on ice for 30 minutes. This was followed by centrifugation at 10,000 rpm for 10 minutes to remove the insoluble portion, and the supernatant was recovered as cell extract. The amount of protein in the cell extract was measured with a BCA protein assay kit (BCA Protein Assay Kit, PIERCE, Calif. 46141).
The A431 cell extract was then diluted to 500 μg/mL with assay buffer (50 mM HEPES, 50 mM sodium acetate, 150 mM sodium chloride, 9 mM calcium chloride, 0.1% BSA). Next, the test compound was dissolved in DMSO and added to the diluted cell extract in proportions of 0.0005 mass %, 0.005 mass % and 0.05 mass %, and these were mixed to prepare sample solutions (DMSO final concentration: 5%). A control solution was prepared by mixing DMSO with the diluted cell extract to a final concentration of 5%. The sample solution and control solution were each seeded in a biotinylated heparan sulfate-immobilized plate at 100 μL/well. […] After further rinsing 3 times with PBS-T, TMB reagent (BIO-RAD, 172-1066) was added at 100 μL/well and reacted therewith, the reaction was terminated with 1N sulfuric acid, and the absorbance at 475 nm (OD475) was measured.
Also, DMSO was added to a serial diluent prepared with the aforementioned A431 cell extract assay buffer (cell extract concentrations: 500 μg/mL, 50 μg/mL, 5 μg/mL, 0.5 μg/mL), to a final concentration of 5% without addition of the test compound, to obtain a mixture (solution for calibration curve). The solution for the calibration curve was subjected to treatment by the same procedure described above, from seeding of the biotinylated heparan sulfate-immobilized plate, and the OD475 was measured. […]

- Heparanase activity inhibition rate (added concentration 0.0005 mass %): 37.64%
- Heparanase activity inhibition rate (added concentration 0.005 mass %): 75.98%
- Heparanase activity inhibition rate (added concentration 0.05 mass %): 94.74%
SMILES: CC(C)Cc1ccc(O)cc1O [4-Isobutylresorcinol, 4-isobutylresorcinol]
